Entries after “also recorded” stand apart in the source; their conditions may differ.

The target of one test is DGKα (Homo sapiens (Human), UniProt P23743). The experiment in a line: In vitro DGKα inhibition assay (ADP-Glo). The settings on record: 0.1 nM DGKα, 50 μM ATP, 20 μM DLG. Format: biochemical. As to the method: (§1) The DGKα and DGKζ biochemical reactions were performed using His-tagged human recombinant enzymes (Signal Chem, DGKα, #D21-10BH; DGKζ, #D30-10H)) and DLG (Dilauroyl-sn-glycerol) lipid substrate (Signal Chem, #D430-59). ADP-Glo assay was performed using ADP-Glo™ kinase Assay kit (Promega, #V9104). The reactions were carried out in assay buffer containing 40 mM Tris, pH 7.5, 0.1% CHAPS, 0.1% Prionex, 40 mM NaCl, 5 mM MgCl2, 1 mM CaCl2, and 1 mM DTT. DGKα reactions contained 0.1 nM DGKα, 50 μM ATP, and 20 μM DLG. And DGKζ reactions contained 0.4 nM DGKζ, 30 μM ATP, and 20 μM DLG.
(§2) For compound inhibition studies, 40 nL test compound in DMSO was added to wells of white polystyrene plates in 384-well (Greiner, #784075) or 1536-well format (Greiner, #782075). Compounds were added with top concentration of 2 mM with 11 point, 3-fold dilution series. Enzyme solution (contains 2×DGK enzyme concentration in 1× assay buffer) was added to the plate in 2 μL/well volume, followed by 2 μL/well of substrate solution (contains 2× concentration of ATP and DLG substrate in 1× assay buffer). Plates were then centrifuged for 1 min at 1200 RPM and sealed or lidded. For 4 μL reaction volume, test compounds were therefore diluted 100× to final top concentration of 20 μM. After 90 minute incubation, reactions were quenched by addition of 2 μL/well Promega ADP-Glo Reagent, followed by centrifugation and lidding. After 60 min incubation, 2 μL/well Promega Kinase Detection Reagent was added, plates centrifuged, and incubated for 30 min. Plates were then read using Luminescence method on BMG PHERAstar FSX plate reader. Percent inhibition was calculated and IC50s were determined using 4-parameter fit in Genedata Screener. Labcyte Echo acoustic dispenser was used for compound addition, and Formulatrix Tempest liquid handler was used for all reagent dispenses.
(In general: In ADP-Glo the light output rises with the ADP produced.)

The target in a further test is DGKζ (Homo sapiens (Human), UniProt Q13574). The experiment in a line: In vitro DGKζ inhibition assay (ADP-Glo). Format: biochemical. The settings on record: 0.4 nM DGKζ, 30 μM ATP, 20 μM DLG. As to the method:
as §1, §2

Test [1] deals with MC38 syngeneic tumor model. The experiment in a line: MC38 syngeneic tumor model, DGK inhibitor plus anti-PD-1 (RMP1-14). The class given is in vivo, C57Bl/6 mice. The settings on record: FIGS. 9A-9B, listed as Compound 3. The protocol:
The in vivo effect of combining Compound 1 plus anti-PD-1 (RMP1-14, Bio X Cell) was assessed in the MC38 (CRL-1642, ATCC, Manassas, VA) syngeneic tumor model (see FIG. 3) in 6 to 8 weeks old C57Bl/6 mice (Jackson laboratories). Compound 1 was suspended in 5% N,N-dimethylacetamide (DMAC)+50 mM Citrate buffer in 0.5% methyl cellulose for oral administration and RMP1-14 was suspended in saline for intraperitoneal administration. Briefly, the left flank of the mice was shaved the day prior to subcutaneous inoculation with 2×10^6 MC38 cells suspended in PBS. On day 7, tumor dimensions were measured by Vernier calipers, and volume estimated by the formula Volume=[L (long dimension)×W^2 (short dimension)]/2. Mice were randomized into 6 groups of 10 mice of approximate mean volume (˜160 mm^3). Tumors were measured 3 times per week for the duration of the study. Starting day 7, mice were dosed with (i) vehicle; (ii) 250 μg/mouse of RMP1-14; (iii) 10 mg/kg of Compound 1; (iv) 1 mg/kg of Compound 1; (v) 10 mg/kg of Compound 1 and 250 μg/mouse of RMP1-14; or (vi) 1 mg/kg of Compound 1 and 250 μg/mouse of RMP1-14. Compound 1 was administered orally once daily (QD) for 12 days, while RMP1-14 was dosed every 5 days (for a total of 3 doses).
The in vivo effect of combining Compound 2 plus anti-PD-1 (RMP1-14, Bio X Cell) was assessed in the MC38 (CRL-1642, ATCC, Manassas, VA) syngeneic tumor model in 6 to 8 weeks old C57Bl/6 mice (Jackson laboratories). Compound 2 was suspended in 5% N,N-dimethylacetamide (DMAC)+50 mM Citrate buffer in 0.5% methyl cellulose for oral administration and RMP1-14 was suspended in saline for intraperitoneal administration. Briefly, the left flank of the mice was shaved the day prior to subcutaneous inoculation with 2×10^6 MC38 cells suspended in PBS. On day 7, tumor dimensions were measured by Vernier calipers, and volume estimated by the formula Volume=[L (long dimension)×W^2 (short dimension)]/2. Mice were randomized into 6 groups of 10 mice of approximate mean volume (˜130 mm^3). Tumors were measured 3 times per week for the duration of the study. Starting day 7, mice were dosed with (i) vehicle; (ii) 250 μg/mouse of RMP1-14 (Anti-PD-1); (iii) 0.5 mg/kg of Compound 2 QD; (iv) 0.5 mg/kg of Compound 2 […] and 250 μg/mouse of RMP1-14; (v) 0.5 mg/kg of Compound 2 Q2D; (vi) 0.5 mg/kg of Compound 2 […] and 250 μg/mouse of RMP1-14; (vii) 1.5 mg/kg of Compound 2 QD; (viii) 1.5 mg/kg of Compound 2 QD and 250 μg/mouse of RMP1-14 (ix) 1.5 mg/kg of Compound 2 Q2D; (x) 1.5 mg/kg of Compound 2 Q2D and 250 μg/mouse of RMP1-14; (xi) 1.5 mg/kg of Compound 2 Q3D; or (xii) 1.5 mg/kg of Compound 2 Q3D and 250 μg/mouse of RMP1-14.
The in vivo effect of combining 2-(4-((2S,5R)-4-(bis(4-fluorophenyl)methyl)-2,5-dimethylpiperazin-1-yl)-1H-[1,2,4]triazolo[3,4-b]purin-1-yl)-N,N-dimethylethane-1-amine (i.e., Compound 3) plus anti-PD-1 (RMP1-14, Bio X Cell) was assessed in the MC38 (CRL-1642, ATCC, Manassas, VA) syngeneic tumor model in 6 to 8 weeks old C57Bl/6 mice (Jackson laboratories). Compound 3 was suspended in 5% N,N-dimethylacetamide (DMAC)+50 mM Citrate buffer in 0.5% methyl cellulose for oral administration and RMP1-14 was suspended in saline for intraperitoneal administration. Briefly, the left flank of the mice was shaved the day prior to subcutaneous inoculation with 2×10^6 MC38 cells suspended in PBS. On day 7, tumor dimensions were measured by Vernier calipers, and volume estimated by the formula Volume=[L (long dimension)×W^2 (short dimension)]/2. Mice were randomized into 6 groups of 10 mice of approximate mean volume (˜200 mm^3). Tumors were measured 3 times per week for the duration of the study. Starting day 7, mice were dosed with (i) vehicle; (ii) 250 μg/mouse of RMP1-14 (Anti-PD-1); (iii) 10 mg/kg of Compound 3 QD; (iv) 10 mg/kg of Compound 3 QD and 250 μg/mouse of RMP1-14; (v) 30 mg/kg of Compound 3 QD; or (vi) 30 mg/kg of Compound 3 QD and 250 μg/mouse of RMP1-14.

Chain of DGKζ (Q13574 whole entry): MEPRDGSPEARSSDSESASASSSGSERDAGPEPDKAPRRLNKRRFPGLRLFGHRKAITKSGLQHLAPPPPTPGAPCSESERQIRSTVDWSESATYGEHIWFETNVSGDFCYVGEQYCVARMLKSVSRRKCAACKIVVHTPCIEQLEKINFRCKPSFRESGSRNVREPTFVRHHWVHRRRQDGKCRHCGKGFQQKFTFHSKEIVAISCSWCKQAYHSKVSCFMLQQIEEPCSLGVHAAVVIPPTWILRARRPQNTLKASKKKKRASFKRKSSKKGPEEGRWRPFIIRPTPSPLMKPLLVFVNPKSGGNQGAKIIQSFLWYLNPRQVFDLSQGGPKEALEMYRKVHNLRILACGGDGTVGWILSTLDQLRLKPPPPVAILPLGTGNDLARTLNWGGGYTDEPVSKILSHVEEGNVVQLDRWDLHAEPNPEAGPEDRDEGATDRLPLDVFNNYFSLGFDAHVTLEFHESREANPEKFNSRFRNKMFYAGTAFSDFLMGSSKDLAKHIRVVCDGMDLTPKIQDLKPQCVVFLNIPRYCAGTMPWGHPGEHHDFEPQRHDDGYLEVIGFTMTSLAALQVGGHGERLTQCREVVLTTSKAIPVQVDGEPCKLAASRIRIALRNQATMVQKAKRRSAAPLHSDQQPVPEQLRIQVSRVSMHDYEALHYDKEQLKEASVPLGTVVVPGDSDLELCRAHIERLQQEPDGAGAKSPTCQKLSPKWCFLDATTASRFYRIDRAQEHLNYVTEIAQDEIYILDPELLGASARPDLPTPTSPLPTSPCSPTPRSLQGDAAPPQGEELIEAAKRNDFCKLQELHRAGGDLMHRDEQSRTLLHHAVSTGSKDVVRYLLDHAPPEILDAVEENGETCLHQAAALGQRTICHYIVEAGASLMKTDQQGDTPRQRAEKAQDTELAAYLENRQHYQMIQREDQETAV
Chain of DGKα (P23743 whole entry): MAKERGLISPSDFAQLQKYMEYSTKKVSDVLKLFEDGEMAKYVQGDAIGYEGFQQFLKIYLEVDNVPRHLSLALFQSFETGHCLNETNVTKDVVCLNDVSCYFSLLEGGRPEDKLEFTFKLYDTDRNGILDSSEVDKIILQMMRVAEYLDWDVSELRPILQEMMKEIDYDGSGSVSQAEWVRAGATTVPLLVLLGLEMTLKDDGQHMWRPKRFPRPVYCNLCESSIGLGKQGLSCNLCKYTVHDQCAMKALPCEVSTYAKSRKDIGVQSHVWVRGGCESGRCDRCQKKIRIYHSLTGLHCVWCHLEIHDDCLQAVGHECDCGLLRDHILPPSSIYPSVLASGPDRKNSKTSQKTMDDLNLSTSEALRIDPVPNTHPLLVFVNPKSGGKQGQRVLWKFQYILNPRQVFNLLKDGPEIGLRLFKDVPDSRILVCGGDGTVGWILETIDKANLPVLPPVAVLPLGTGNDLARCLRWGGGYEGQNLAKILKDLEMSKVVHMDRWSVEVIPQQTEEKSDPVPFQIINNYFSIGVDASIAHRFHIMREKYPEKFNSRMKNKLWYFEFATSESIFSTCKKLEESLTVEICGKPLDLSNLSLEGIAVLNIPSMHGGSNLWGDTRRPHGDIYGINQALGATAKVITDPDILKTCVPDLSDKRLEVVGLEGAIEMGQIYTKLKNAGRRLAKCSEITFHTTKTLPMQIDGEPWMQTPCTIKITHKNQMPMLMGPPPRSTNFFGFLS

By IC50 is commonly meant the point on the concentration scale where inhibition reaches its midpoint. Regarding `C[C@@H]1CN(c2nc3nncn3c3c2ncn3CCN(C)C)[C@@H](C)CN1C(c1ccc(F)cc1)c1ccc(F)cc1` [Example 24, 2-(4-((2S,5R)-4-(Bis(4-fluorophenyl)methyl)-2,5-dimethylpiperazin-1-yl)-1H-[1,2,4]triazolo[3,4-b]purin-1-yl)-N,N-dimethylethane-1-amine], the concentration for half-maximal inhibition (IC50) against DGKα and against DGKζ was ≤ 20 nM in each case. Further, the “TGI, combined with anti-PD-1 mAb, vs anti-PD-1 control group” value in test [1] (30 mg/kg Compound 3 QD and 250 μg/mouse RMP1-14) is on record as “statistically significant; also recorded: significant TGI”. The “TGI vs vehicle control group” value in test [1] (all groups treated with Compound 3: 10 or 30 mg/kg QD, alone or with 250 μg/mouse RMP1-14) is recorded as “Tumor growth inhibition of Compound 3 was observed for all groups; also recorded: statistically significant TGI”.
